According to PubChem BioAssay (NCI):
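Compound exposure: 48 hours, 5 concentrations, 96-well plates. At the GI50, growth is halved. At the TGI there is no net growth.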

How the values were obtained:
Assay in all cases: NCI-60 cell line screen, 48 h
U251 CNS = test system: U251 CNS
A498 renal = test system: A498 renal
DU-145 prostate = test system: DU-145 prostate
A549 NSCLC = test system: A549 NSCLC
MOLT-4 leukemia = test system: MOLT-4 leukemia
PC-3 prostate = test system: PC-3 prostate
RPMI-8226 leukemia = test system: RPMI-8226 leukemia
NCI-H226 lung = test system: NCI-H226 lung
SR leukemia = test system: SR leukemia
RXF 393 renal = test system: RXF 393 renal
HOP-92 NSCLC = test system: HOP-92 NSCLC
SF-295 CNS = test system: SF-295 CNS
SK-MEL-2 melanoma = test system: SK-MEL-2 melanoma
K-562 leukemia = test system: K-562 leukemia
CCRF-CEM leukemia = test system: CCRF-CEM leukemia
OVCAR-4 ovarian = test system: OVCAR-4 ovarian
MDA-MB-231 breast = test system: MDA-MB-231 breast
OVCAR-8 ovarian = test system: OVCAR-8 ovarian
M14 melanoma = test system: M14 melanoma
OVCAR-5 ovarian = test system: OVCAR-5 ovarian
SW-620 colon = test system: SW-620 colon
SK-MEL-5 melanoma = test system: SK-MEL-5 melanoma
HCC-2998 colon = test system: HCC-2998 colon
BT-549 breast = test system: BT-549 breast
HS 578T breast = test system: HS 578T breast
NCI-H460 lung = test system: NCI-H460 lung
UO-31 renal = test system: UO-31 renal
HCT-15 colon = test system: HCT-15 colon
LOX IMVI melanoma = test system: LOX IMVI melanoma
MDA-MB-435 = test system: MDA-MB-435
UACC-257 melanoma = test system: UACC-257 melanoma
SF-539 CNS = test system: SF-539 CNS
HCT-116 colon = test system: HCT-116 colon
NCI-H23 lung = test system: NCI-H23 lung
T-47D breast = test system: T-47D breast
SN12C renal = test system: SN12C renal
NCI/ADR-RES ovarian = test system: NCI/ADR-RES ovarian
TK-10 renal = test system: TK-10 renal
HOP-62 NSCLC = test system: HOP-62 NSCLC
786-0 renal = test system: 786-0 renal
MCF7 breast = test system: MCF7 breast
UACC-62 melanoma = test system: UACC-62 melanoma
HT29 colon = test system: HT29 colon
MALME-3M melanoma = test system: MALME-3M melanoma
SNB-75 CNS = test system: SNB-75 CNS
IGROV1 ovarian = test system: IGROV1 ovarian
SK-OV-3 ovarian = test system: SK-OV-3 ovarian
HL-60(TB) leukemia = test system: HL-60(TB) leukemia
CAKI-1 renal = test system: CAKI-1 renal
SF-268 CNS = test system: SF-268 CNS
OVCAR-3 ovarian = test system: OVCAR-3 ovarian
SNB-19 CNS = test system: SNB-19 CNS
NCI-H522 lung = test system: NCI-H522 lung
ACHN renal = test system: ACHN renal
COLO 205 colon = test system: COLO 205 colon
KM12 colon = test system: KM12 colon
SK-MEL-28 melanoma = test system: SK-MEL-28 melanoma
EKVX NSCLC = test system: EKVX NSCLC

With `O=C1NCN(c2ccccc2)C12CCN(CCCC(c1ccc(F)cc1)c1ccc(F)cc1)CC2` the GI50 (U251 CNS) was 1.55 µM, the TGI (U251 CNS) was 2.91 µM and the GI50 (A498 renal) was 1.18 µM. It also gave a TGI (A498 renal) of 4.94 µM, a GI50 (DU-145 prostate) of 3.25 µM and a TGI (DU-145 prostate) of 11.2 µM. For the same compound, the GI50 (A549 NSCLC) was 2.56 µM, the TGI (A549 NSCLC) was 9.68 µM and the GI50 (MOLT-4 leukemia) was 2.31 µM. It also gave a TGI (MOLT-4 leukemia) of 5.99 µM, a GI50 (PC-3 prostate) of 2.49 µM and a TGI (PC-3 prostate) of 10.7 µM. For the same compound, the GI50 (RPMI-8226 leukemia) was 1.82 µM, the TGI (RPMI-8226 leukemia) was 4.1 µM and the GI50 (NCI-H226 lung) was 7.36 µM. For the same compound, the TGI (NCI-H226 lung) was 35.5 µM, the GI50 (SR leukemia) was 0.704 µM and the TGI (SR leukemia) was 3.74 µM. The GI50 (RXF 393 renal) was 1.72 µM, the TGI (RXF 393 renal) was 4.37 µM and the GI50 (HOP-92 NSCLC) was 0.397 µM. The TGI (HOP-92 NSCLC) was 2.62 µM, the GI50 (SF-295 CNS) was 1.5 µM and the TGI (SF-295 CNS) was 3.1 µM. For the same compound, the GI50 (SK-MEL-2 melanoma) was 1.56 µM, the TGI (SK-MEL-2 melanoma) was 2.98 µM and the GI50 (K-562 leukemia) was 1.71 µM. The TGI (K-562 leukemia) was 4.11 µM, the GI50 (CCRF-CEM leukemia) was 2.14 µM and the TGI (CCRF-CEM leukemia) was 6.09 µM. The GI50 (OVCAR-4 ovarian) was 2.13 µM, the TGI (OVCAR-4 ovarian) was 9.98 µM and the GI50 (MDA-MB-231 breast) was 1.89 µM. The TGI (MDA-MB-231 breast) was 3.88 µM, the GI50 (OVCAR-8 ovarian) was 1.6 µM and the TGI (OVCAR-8 ovarian) was 3.05 µM. For the same compound, the GI50 (M14 melanoma) was 1.67 µM, the TGI (M14 melanoma) was 3.18 µM and the GI50 (OVCAR-5 ovarian) was 3.76 µM. The TGI (OVCAR-5 ovarian) was 16.4 µM, the GI50 (SW-620 colon) was 2.06 µM and the TGI (SW-620 colon) was 4.58 µM. It also gave a GI50 (SK-MEL-5 melanoma) of 1.6 µM, a TGI (SK-MEL-5 melanoma) of 2.97 µM and a GI50 (HCC-2998 colon) of 2.24 µM. It also gave a TGI (HCC-2998 colon) of 4.16 µM, a GI50 (BT-549 breast) of 2.53 µM and a TGI (BT-549 breast) of 7.94 µM. It also gave a GI50 (HS 578T breast) of 2.17 µM, a TGI (HS 578T breast) of 6.51 µM and a GI50 (NCI-H460 lung) of 1.68 µM. For the same compound, the TGI (NCI-H460 lung) was 3.08 µM, the GI50 (UO-31 renal) was 1.28 µM and the TGI (UO-31 renal) was 3.96 µM. For the same compound, the GI50 (HCT-15 colon) was 2.09 µM, the TGI (HCT-15 colon) was 4.71 µM and the GI50 (LOX IMVI melanoma) was 1.8 µM. For the same compound, the TGI (LOX IMVI melanoma) was 3.32 µM, the GI50 (MDA-MB-435) was 1.75 µM and the TGI (MDA-MB-435) was 3.77 µM. It also gave a GI50 (UACC-257 melanoma) of 1.59 µM, a TGI (UACC-257 melanoma) of 3.15 µM and a GI50 (SF-539 CNS) of 1.71 µM. It also gave a TGI (SF-539 CNS) of 3.13 µM, a GI50 (HCT-116 colon) of 1.58 µM and a TGI (HCT-116 colon) of 2.96 µM. It also gave a GI50 (NCI-H23 lung) of 3.31 µM, a TGI (NCI-H23 lung) of 15.2 µM and a GI50 (T-47D breast) of 2.43 µM. The TGI (T-47D breast) was 6.49 µM, the GI50 (SN12C renal) was 2.45 µM and the TGI (SN12C renal) was 8.36 µM. For the same compound, the GI50 (NCI/ADR-RES ovarian) was 2.85 µM, the TGI (NCI/ADR-RES ovarian) was 10.2 µM and the GI50 (TK-10 renal) was 1.79 µM. For the same compound, the TGI (TK-10 renal) was 4.11 µM, the GI50 (HOP-62 NSCLC) was 1.84 µM and the TGI (HOP-62 NSCLC) was 3.52 µM. It also gave a GI50 (786-0 renal) of 1.67 µM, a TGI (786-0 renal) of 3.52 µM and a GI50 (MCF7 breast) of 1.88 µM. For the same compound, the TGI (MCF7 breast) was 5.65 µM, the GI50 (UACC-62 melanoma) was 1.68 µM and the TGI (UACC-62 melanoma) was 3.15 µM. For the same compound, the GI50 (HT29 colon) was 1.51 µM, the TGI (HT29 colon) was 3.22 µM and the GI50 (MALME-3M melanoma) was 1.66 µM. It also gave a TGI (MALME-3M melanoma) of 3.46 µM, a GI50 (SNB-75 CNS) of 2.07 µM and a TGI (SNB-75 CNS) of 14.2 µM. It also gave a GI50 (IGROV1 ovarian) of 2.36 µM, a TGI (IGROV1 ovarian) of 9.89 µM and a GI50 (SK-OV-3 ovarian) of 4.2 µM. It also gave a TGI (SK-OV-3 ovarian) of 14.7 µM, a GI50 (HL-60(TB) leukemia) of 1.82 µM and a TGI (HL-60(TB) leukemia) of 4 µM. For the same compound, the GI50 (CAKI-1 renal) was 2.51 µM, the TGI (CAKI-1 renal) was 7.44 µM and the GI50 (SF-268 CNS) was 2.04 µM. It also gave a TGI (SF-268 CNS) of 4.78 µM, a GI50 (OVCAR-3 ovarian) of 2 µM and a TGI (OVCAR-3 ovarian) of 3.98 µM. For the same compound, the GI50 (SNB-19 CNS) was 2.99 µM, the TGI (SNB-19 CNS) was 12.8 µM and the GI50 (NCI-H522 lung) was 1.51 µM. For the same compound, the TGI (NCI-H522 lung) was 2.93 µM, the GI50 (ACHN renal) was 2.79 µM and the TGI (ACHN renal) was 7.23 µM. The GI50 (COLO 205 colon) was 1.72 µM, the TGI (COLO 205 colon) was 3.24 µM and the GI50 (KM12 colon) was 2.14 µM. It also gave a TGI (KM12 colon) of 4.38 µM, a GI50 (SK-MEL-28 melanoma) of 1.62 µM and a TGI (SK-MEL-28 melanoma) of 3.1 µM.

`Cc1nc2ccccc2c(=O)n1NC(=O)c1ccccc1[N+](=O)[O-]` was tested, and the TGI (U251 CNS) was > 100 µM, the TGI (A498 renal) was > 100 µM and the TGI (DU-145 prostate) was > 100 µM. The TGI (A549 NSCLC) was > 100 µM, the TGI (MOLT-4 leukemia) was > 100 µM and the TGI (PC-3 prostate) was > 100 µM. For the same compound, the TGI (RPMI-8226 leukemia) was > 100 µM, the TGI (NCI-H226 lung) was > 100 µM and the TGI (SR leukemia) was > 100 µM. The TGI (EKVX NSCLC) was > 100 µM, the TGI (HOP-92 NSCLC) was > 100 µM and the TGI (SF-295 CNS) was > 100 µM. For the same compound, the TGI (K-562 leukemia) was > 100 µM, the TGI (CCRF-CEM leukemia) was > 100 µM and the TGI (OVCAR-4 ovarian) was > 100 µM. The TGI (MDA-MB-231 breast) was > 100 µM, the TGI (M14 melanoma) was > 100 µM and the TGI (OVCAR-5 ovarian) was > 100 µM. For the same compound, the TGI (SW-620 colon) was > 100 µM, the TGI (SK-MEL-5 melanoma) was > 100 µM and the TGI (HCC-2998 colon) was > 100 µM. The TGI (BT-549 breast) was > 100 µM, the TGI (HS 578T breast) was > 100 µM and the TGI (NCI-H460 lung) was > 100 µM. The TGI (UO-31 renal) was > 100 µM, the TGI (HCT-15 colon) was > 100 µM and the TGI (LOX IMVI melanoma) was > 100 µM. The TGI (MDA-MB-435) was > 100 µM, the TGI (UACC-257 melanoma) was > 100 µM and the TGI (SF-539 CNS) was > 100 µM. For the same compound, the TGI (HCT-116 colon) was > 100 µM, the TGI (NCI-H23 lung) was > 100 µM and the TGI (T-47D breast) was > 100 µM. The TGI (SN12C renal) was > 100 µM, the TGI (NCI/ADR-RES ovarian) was > 100 µM and the TGI (TK-10 renal) was > 100 µM. The TGI (HOP-62 NSCLC) was > 100 µM, the TGI (786-0 renal) was > 100 µM and the TGI (MCF7 breast) was > 100 µM. The TGI (UACC-62 melanoma) was > 100 µM, the TGI (HT29 colon) was > 100 µM and the TGI (MALME-3M melanoma) was > 100 µM. For the same compound, the TGI (SNB-75 CNS) was > 100 µM, the TGI (IGROV1 ovarian) was > 100 µM and the TGI (SK-OV-3 ovarian) was > 100 µM. For the same compound, the TGI (HL-60(TB) leukemia) was > 100 µM, the TGI (SF-268 CNS) was > 100 µM and the TGI (OVCAR-3 ovarian) was > 100 µM. The TGI (SNB-19 CNS) was > 100 µM, the TGI (NCI-H522 lung) was > 100 µM and the TGI (ACHN renal) was > 100 µM. For the same compound, the TGI (KM12 colon) was > 100 µM and the TGI (SK-MEL-28 melanoma) was > 100 µM.
